Source: a melting point compilation (Tetko et al.)

Row | Structure (SMILES) | melting point [°C]
1 | O=C(O)C1CC(=O)N(C2CCS(=O)(=O)C2)C1 (stereo unspecified) | 255 to 257
2 | NC(=O)c1ccn(-c2cccc(N)c2)n1 | 177 to 179
3 | CS(=O)(=O)OCCN1C(=O)c2ccccc2C1=O | 140 to 142
4 | CC(=CC(=O)O)c1ccc(F)cc1F | 157 to 159
5 | NC(Cc1ccccn1)=NO | 105 to 107
6 | NS(=O)(=O)c1cc(Cl)c(Br)s1 | 147 to 149
7 | COc1ccc(-c2nn(CCC#N)cc2/C=C(/C#N)C(=O)O)cc1 | 212 to 214
8 | Cc1cncc(C=CC(=O)O)c1 | 209 to 211
9 | COC(=O)c1sc2nc(C)nc(Cl)c2c1C | 149 to 151
10 | O=C1Nc2c(ccc(Cl)c2Cl)C1=O | 203 to 205
11 | CCOC(=O)C(O)c1nccn1Cc1ccccc1 (stereo unspecified) | 134 to 136
12 | CC(NC(=O)CCC(=O)O)C(=O)c1ccc(Br)cc1 (stereo unspecified) | 136 to 138
13 | O=C(O)c1cc(S(=O)(=O)Cl)cs1 | 139 to 141
14 | COC(=O)C(=O)CC(=O)c1cc(Cl)ccc1Cl | 150 to 152
15 | O=C(O)C1Cc2cc(Cl)ccc2O1 (stereo unspecified) | 114 to 118
16 | Oc1ccc(-n2cnc3ccccc32)cc1 | 278 to 280
17 | O=C(c1ccc(F)cc1)c1cccnc1 | 92 to 94
18 | O=[N+]([O-])c1ccccc1CSc1ncccn1 | 60 to 62
19 | Nc1ccc(F)c(NC(=O)CCN2CCOCC2)c1 | 119 to 121
20 | COc1ccc(-n2ccc(C(=O)O)n2)cc1 | 182 to 184
21 | COc1cc(Br)ccc1C#N | 135 to 137
22 | O=C(O)CCOc1ccccc1F | 112 to 114
23 | O=C(O)c1cccnc1OCC(F)(F)F | 122 to 124
24 | CC(C)(C)OC(=O)c1nnsc1N | 134 to 136
25 | C=CCNC(=O)CC#N | 65 to 67

Row | Structure (SMILES) | melting point [°C]
26 | O=C1CCCc2c(Br)cccc2N1 | 169 to 171
27 | O=C1c2ccc(S(=O)(=O)Cl)cc2CCC1Cl (stereo unspecified) | 124 to 126
28 | Nc1cc(-c2cccc(Cl)c2)nn1CCO | 146 to 148
29 | CC(C)c1nc2ccccc2n1CC#N | 116 to 118
30 | COc1ccc(CCC(=O)O)cc1Br | 95 to 97
31 | Cc1cccc(OCCCC(=O)O)c1 | 55 to 57
32 | N#Cc1ccc(N=C=S)cc1Cl | 75 to 77
33 | CN(C)C(=O)c1ccc(C#N)cc1 | 93 to 95
34 | Cc1ccc(OCC(=O)O)c(Br)c1 | 130 to 132
35 | NC(=NO)c1ccccc1Cl | 87 to 91
36 | O=C(Nc1ccsc1C(=O)O)c1ccncc1 | 230 to 232
37 | Cc1cc(S(=O)(=O)Cl)cc(C(=O)O)c1Cl | 169 to 171
38 | O=Cc1cc2c(cc1[N+](=O)[O-])OCCO2 | 169 to 171
39 | N#Cc1cc2c([nH]c1=O)CCCC2 | 246 to 248
40 | O=C(O)c1cc(Cl)c2c(c1)OCCCO2 | 195 to 197
41 | Cc1cc(C)c(NC(=O)C(C)Cl)c(Cl)c1 (stereo unspecified) | 157 to 159
42 | CC(C)C(Oc1ccccc1C#N)C(=O)O (stereo unspecified) | 67 to 69
43 | N#Cc1cnn(-c2cccc(C(=O)O)c2)c1N | 286 to 288
44 | c1cn(-c2cncnc2)cn1 | 129 to 131
45 | O=c1cc2c(n[nH]1)CCC2 | 209 to 211
46 | O=C(O)c1ccccc1CSc1nnc[nH]1 | 177 to 179
47 | COc1ccccc1NC(=O)Cc1noc(CCl)n1 | 95 to 97
48 | COc1ccc2c(ccn2CC(=O)O)c1 | 140 to 142
49 | CC(=O)c1ccc2c3c(cccc13)CC2 | 58 to 60
50 | O=C(O)C1C2C3CC4C5CC(C42)C1C53 (stereo unspecified) | 101 to 103

Row | Structure (SMILES) | melting point [°C]
51 | CCN(CC)S(=O)(=O)c1cc(N)ccc1Cl | 95 to 99
52 | CC(=O)N(Cc1ccc(N)cc1)C(C)C | 110 to 112
53 | O=C(Nc1sccc1C(=O)O)c1ccc(Cl)cc1O | 244 to 246
54 | COCCNc1cc2nc[nH]c(=O)c2cc1[N+](=O)[O-] | 259 to 261
55 | COc1ccc(Br)cc1CC(=O)O | 132 to 134
56 | O=c1[nH]c(=O)c2cc(S(=O)(=O)Cl)cnc2[nH]1 | 311 to 313
57 | CC(C)N1N=C(C(=O)O)CCC1=O | 131 to 133
58 | Cc1ccc(-c2cnc(-c3ccccc3C(=O)O)o2)cc1 | 219 to 221
59 | O=C(O)c1ccc(COc2ccc3ccccc3c2)o1 | 171 to 173
60 | COC(=O)c1cccc(S(N)(=O)=O)c1 | 131 to 133
61 | COC(=O)c1ccc(F)c(CBr)c1 | 50 to 52
62 | O=C(O)C1CCC(NC(=O)C2CCCC2)CC1 (stereo unspecified) | 161 to 163
63 | O=C(O)c1cccc(N2CCOC2=O)c1 | 214 to 216
64 | CC(C)(C)OC(=O)Nc1cccc(C#N)c1 | 127 to 129
65 | Cc1ccc(-c2nc(CC(=O)O)cs2)c(C)c1 | 104 to 106
66 | CC(O)c1ccc(N(C)Cc2ccccn2)c(F)c1 (stereo unspecified) | 73 to 75
67 | Cc1nc2nc(N)nn2c(C)c1CC(=O)O | 260 to 264
68 | CCOc1ccc(F)c(C(=O)O)c1F | 149 to 151
69 | CC(Cc1ccc(C(F)(F)F)cc1)C(=O)O (stereo unspecified) | 68 to 70
70 | FC(F)(F)c1ccc2sc(Cl)nc2c1 | 57 to 59
71 | NC(=O)c1cccc2ncccc12 | 228 to 230
72 | CCOc1ccccc1OCCCC(=O)O | 66 to 68
73 | Cc1cccc(S(=O)(=O)Cl)c1C#N | 74 to 76
74 | Nc1ccccc1N1C(=O)CCC1=O | 231 to 233
75 | CCc1c(C(=O)O)nnn1-c1cccc(N)c1 | 179 to 181

Row | Structure (SMILES) | melting point [°C]
76 | Fc1ccc(-c2nnc3cc(Cl)ncn23)c(F)c1 | 170 to 172
77 | Cc1ccc(OC(C)C(=O)O)c(Br)c1 (stereo unspecified) | 120 to 122
78 | COc1cccc(-n2c(C)nnc2SCC(=O)O)c1 | 130 to 132
79 | COc1ccc(-c2nnc(N)[nH]2)c(OC)c1 | 214 to 216
80 | COCCOc1ccc(C(=O)O)cn1 | 134 to 136
81 | CC(=O)Nc1c(Br)cccc1[N+](=O)[O-] | 192 to 194
82 | NC(=O)c1ccc(Cl)cc1O | 188 to 190
83 | CCOC(=O)CNC(=O)OCC(F)(F)F | 38 to 40
84 | NC(=O)C1(O)Cc2ccccc2C1 | 186 to 188
85 | NCCCCN1CCN(CCO)CC1 | 90 to 92
86 | COC(=O)c1cncc(C(=O)O)c1 | 225 to 227
87 | COCCc1ccc(S(=O)(=O)Cl)cc1 | 40 to 42
88 | N#CC=C(Cl)c1ccccc1 | 32 to 34
89 | CC(=O)N(C)CCC(N)=S | 109 to 111
90 | O=C(O)C1SCCc2sccc21 (stereo unspecified) | 148 to 150
91 | CCN(C(=O)OC(C)(C)C)C(C#N)c1cccnc1 (stereo unspecified) | 66 to 68
92 | Cc1cccc(OCC(=O)N2CCNCC2)c1C | 86 to 88
93 | O=C(O)CSc1ccccc1O | 51 to 53
94 | Cn1cc(C(N)=S)cn1 | 189 to 191
95 | COc1ccccc1C(C)CC(=O)O (stereo unspecified) | 50 to 52
96 | CC1(C)CC(=O)c2ccccc2O1 | 87 to 89
97 | NC(=O)c1cc(Cl)nnc1Cl | 176 to 178
98 | OCc1ccc(N2CCCC2)cc1 | 61 to 63
99 | Cc1cc(N)nn1-c1ccc(Cl)c(Cl)c1 | 124 to 126
100 | N#CC1(CS(N)(=O)=O)CCCC1 | 72 to 74

Row | Structure (SMILES) | melting point [°C]
101 | O=C(O)c1cc(-c2ccco2)nc2ccccc12 | 209 to 211
102 | N#Cc1ccc(-c2nc(CCl)co2)cc1 | 132 to 134
103 | Cc1noc(S)n1 | 123 to 125
104 | CNC(=O)c1ccc(C)c(N)c1 | 167 to 169
105 | O=C(O)c1cc2c(F)c(F)ccc2[nH]1 | 209 to 211
106 | CC1CC(C)CN(S(=O)(=O)c2ccc(S(=O)(=O)Cl)cc2)C1 (stereo unspecified) | 153 to 155
107 | COc1ccc(O)c(C(C)(C)C)c1 | 61 to 63
108 | COc1ccccc1NC(=O)c1c(C)n[nH]c1N | 178 to 182
109 | Nc1cc(-c2cc(F)cc(Br)c2)[nH]n1 | 104 to 106
110 | COc1ccc(OC)c2c(O)c(C(=O)O)cnc12 | 272 to 274
111 | O=C(O)c1ncccc1OCC(F)(F)F | 116 to 118
112 | O=C(O)c1cccc(S(=O)(=O)NCC2CCCO2)c1 (stereo unspecified) | 157 to 161
113 | COc1ccc(C=O)c(Cl)c1 | 60 to 62
114 | Oc1cccc(-n2cnnn2)c1 | 174 to 176
115 | O=C(O)CNC(=O)c1c[nH]c(=O)[nH]c1=O | 301 to 303
116 | O=S(=O)(CCCBr)c1ccc(F)cc1 | 36 to 38
117 | O=C(Nc1ccc(Cl)cn1)C1CCCNC1 (stereo unspecified) | 156 to 158
118 | CC(C)(C)c1ccc(C(O)CCC(=O)O)cc1 (stereo unspecified) | 127 to 129
119 | Cc1cc(C)c2c(C)c(C(=O)O)sc2n1 | 278 to 280
120 | CC(C)N1CCN(C2CCNCC2)CC1 | 49 to 51
121 | NC(CC(=O)O)c1ccc(-c2ccccc2)cc1 (stereo unspecified) | 238 to 240
122 | CCn1nc(C)c(C(=O)O)c1C | 139 to 141
123 | ClCc1cc(Cl)c2c(c1)OCCO2 | 59 to 61
124 | Cc1c(C(=O)O)cnn1C(C)(C)C | 132 to 134
125 | O=C(O)c1cc2cccc(Cl)c2o1 | 243 to 245

Row | Structure (SMILES) | melting point [°C]
126 | Cc1nc(N)c(I)cc1Br | 135 to 137
127 | CCCCN(C(=O)CCl)c1c(N)n(CCC)c(=O)[nH]c1=O | 229 to 231
128 | N#Cc1ccc(F)c(CS(=O)(=O)Cl)c1 | 105 to 107
129 | Cc1cc(N)n(Cc2ccccn2)n1 | 94 to 96
130 | CC1CCCC(NC(=O)CCl)C1C (stereo unspecified) | 125 to 127
131 | O=C(O)CNC(=O)CC(F)(F)F | 122 to 124
132 | O=C1NC(=O)C2(CCCN(Cc3ccccc3)C2)N1 (stereo unspecified) | 209 to 211
133 | CNC(=O)NN | 103 to 105
134 | CCOC(=O)c1cnc2ccccc2c1Cl | 37 to 39
135 | CCc1c(C)nn(-c2cccc(C(=O)O)c2)c1C | 149 to 151
136 | CN(C)c1nc[nH]c(=O)c1N | 158 to 160
137 | COc1ccc(C)cc1C1(C)NC(=O)N(CC(=O)O)C1=O (stereo unspecified) | 188 to 190
138 | NC(=O)c1csc(N)n1 | 196 to 198
139 | Cc1nccn1-c1ccc(C(F)(F)F)cc1N | 183 to 185
140 | CN1CCC(NCCO)CC1 | 37 to 39
141 | CNS(=O)(=O)c1cccc(S(=O)(=O)Cl)c1 | 98 to 100
142 | CCC(Oc1ccccc1F)C(=O)O (stereo unspecified) | 63 to 65
143 | COc1ccc(NS(=O)(=O)c2ccc(C)c(N)c2)cc1 | 127 to 129
144 | O=C(O)CNS(=O)(=O)c1ccc2ccccc2c1 | 180 to 182
145 | CSC(=S)NN=C(C)c1ccccc1 | 149 to 151
146 | O=C(NCCO)c1ccccc1 | 60 to 62
